Reference: US7803779B2, “Drugs for the treatment and/or prophylaxis of gastroparesis symptom” (Chugai Seiyaku Kabushiki Kaisha, priority 2005, dated 2010)
“Also recorded” adds a separate entry of the source.

Tests used:
[1] = system: patients with gastroparesis; details: 383 patients, both delayed and non-delayed gastric emptying; cited from earlier work
[2] = system: gastric emptying; details: clinical; cited from earlier work
[3] = system: diabetic patients presenting with gastroparesis symptom despite a normal level of gastric emptying; assay: Effect of GM-611 on gastroparesis symptom in diabetic patients with a normal level of gastric emptying (Example 1, FIG. 1); assay type: in vivo, human
Text: FIG. 1, which is titled “Effect of GM-611 on gastroparesis symptom in diabetic patients with a normal level of gastric emptying”, is a graph showing results of evaluating the percentage of responders who were in the patients the gastroparesis symptom regardless a normal level of gastric emptying and who perceived an adequate relief of gastroparesis symptom by the administration of the therapeutic and/or preventive agent against gastroparesis symptom according to the present invention; M1R (month 1 responder) refers to patients who had adequate relief in at least 50% of weekly evaluations for the first one month of medication and CR (complete responder) refers to patients who were evaluated as monthly responder for three consecutive months.
(§1) In the following examples, GM-611 (8,9-didehydro-N-demethyl-9-deoxo-6,11-dideoxy-6,9-epoxy-12-O-methyl-N-(1-methylethyl)-11-oxoerythromycin,(2E)-2-butenedioate) was used as a compound of the formula (1). This compound was synthesized in the laboratories of Chugai Pharmaceutical Co., Ltd. as described in WO02/18403 and WO02/30943. To evaluate the efficacy of GM-611 in improving subjective gastroparesis symptom, diabetic patients on insulin therapy were selected. Since the analyses in the following examples were after the key-open of clinical trial, P<0.01 in a two-tail test was considered to show a significant effect and P<0.1 a tendency.
In order to assess the efficacy of GM-611 in improving subjective gastroparesis symptom, diabetic patients who were presenting with gastroparesis symptom despite a normal level of gastric emptying were selected. […] All assessment in the subjective gastroparesis symptom was evaluated by an electric diary by phone. Starting one week after the initiation of medication, the patients were interviewed every week and asked whether in the past 7 days, you have had adequate relief of your gastroparesis symptoms, and the yes/no answers were recorded. […] Patients who were evaluated as monthly responder for three consecutive months. were assigned as “complete responders” (CR).

[4] = system: patients of type 1 diabetes with gastroparesis symptom and a normal level of gastric emptying; assay: Effect of GM-611 on gastroparesis symptom in patients of type 1 diabetes with a normal level of gastric emptying (Example 2, FIG. 2); assay type: in vivo, human; details: type 1 diabetes patients only
Text: FIG. 2, which is titled “Effect of GM-611 on gastroparesis symptom in patients of type 1 diabetes with a normal level of gastric emptying”, is a graph showing results of evaluating the percentage of responders who were in the patients of type 1 diabetes with the gastroparesis symptom regardless a normal level of gastric emptying and who perceived an adequate relief of gastroparesis symptom by the administration of the therapeutic and/or preventive agent against gastroparesis symptom according to the present invention; M1R (month 1 responder) refers to patients who had adequate relief in at least 50% of weekly evaluations for the first one month of medication and CR (complete responder) refers to patients who were evaluated as monthly responder for three consecutive months.
as §1
(§2) In order to assess the efficacy of GM-611 in improving subjective gastroparesis symptom, diabetic patients who were presenting with gastroparesis symptom despite a normal level of gastric emptying were selected. […] All assessment in the subjective gastroparesis symptom was evaluated by an electric diary by phone. Starting one week after the initiation of medication, the patients were interviewed every week and asked whether in the past 7 days, you have had adequate relief of your gastroparesis symptoms, and the yes/no answers were recorded. […] Patients who were evaluated as monthly responder for three consecutive months. were assigned as “complete responders” (CR). […]

[5] = system: diabetic patients with good glycemic control (hemoglobin A1C no more than 8%) with a normal level of gastric emptying; assay: Effect of GM-611 on gastroparesis symptom in diabetic patients of good glycemic control with a normal level of gastric emptying (Example 3, FIG. 3); assay type: in vivo, human
Text: FIG. 3, which is titled “Effect of GM-611 on gastroparesis symptom in diabetic patients of good glycemic control with a normal level of gastric emptying”, is a graph showing results of evaluating the percentage of responders who were in the diabetic patients with good glycemic control with the gastroparesis symptom regardless a normal level of gastric emptying and who perceived an adequate relief of gastroparesis symptom by the administration of the therapeutic and/or preventive agent against gastroparesis symptom according to the present invention; M1R (month 1 responder) refers to patients who had adequate relief in at least 50% of weekly evaluations for the first one month of medication and CR (complete responder) refers to patients who were evaluated as monthly responder for three consecutive months.
(§3) In the following examples, GM-611 (8,9-didehydro-N-demethyl-9-deoxo-6,11-dideoxy-6,9-epoxy-12-O-methyl-N-(1-methylethyl)-11-oxoerythromycin,(2E)-2-butenedioate) was used as a compound of the formula (1). This compound was synthesized in the laboratories of Chugai Pharmaceutical Co., Ltd. as described in WO02/18403 and WO02/30943. To evaluate the efficacy of GM-611 in improving subjective gastroparesis symptom, diabetic patients on insulin therapy were selected. […]
as §2

[6] = system: diabetic patients with a longer-than-ten-year history of diabetes with a normal level of gastric emptying; assay: Effect of GM-611 on gastroparesis symptom in diabetic patients of diabetic history longer than 10 years with a normal level of gastric emptying (Example 4, FIG. 4); assay type: in vivo, human
Text: FIG. 4, which is titled “Effect of GM-611 on gastroparesis symptom in diabetic patients of diabetic history longer than 10 years with a normal level of gastric emptying”, is a graph showing results of evaluating the percentage of responders who were in the diabetic patients of diabetic history longer than 10 years with the gastroparesis symptom regardless a normal level of gastric emptying and who perceived an adequate relief of gastroparesis symptom by the administration of the therapeutic and/or preventive agent against gastroparesis symptom according to the present invention; M1R (month 1 responder) refers to patients who had adequate relief in at least 50% of weekly evaluations for the first one month of medication and CR (complete responder) refers to patients who were evaluated as monthly responder for three consecutive months.
as §3, §2

| SMILES | efficacy on gastroparesis symptom [1] | acceleration of gastric emptying [2] | dose dependency of efficacy [3] | P, CR rate in whole GM-611 treated group vs. placebo group by chi-square test ([3]; complete responders, 3 months) | percentage of responders who had adequate relief in gastroparesis symptom vs placebo group ([3]; twice daily at meals for 3 months, both GM-611 groups) | P, CR rate in whole GM-611 treated group vs. placebo group by chi-square test [4] | dose dependency of efficacy [4] | efficacy in improving the symptom ([4]; normal gastric emptying) | P, CR rate in whole GM-611 treated group vs. placebo group by chi-square test [5] | dose dependency of efficacy [5] | efficacy in improving the symptom [5] | P, CR rate in whole GM-611 treated group vs. placebo group by chi-square test [6] | dose dependency of efficacy [6] | efficacy in improving the symptom [6] |
| --- | --- | --- | --- | --- | --- | --- | --- | --- | --- | --- | --- | --- | --- | --- |
| CC[C@H]1OC(=O)[C@H](C)[C@@H](O[C@H]2C[C@@](C)(OC)C[C@H](C)O2)[C@H](C)[C@@H](O[C@@H]2O[C@H](C)C[C@H](N(C)CC)[C@H]2O)[C@@]2(C)CC(C)=C(O2)[C@H](C)[C@@H](O)[C@H]1C [ABT-229] | no efficacy | capable of accelerating gastric emptying | – | – | – | – | – | – | – | – | – | – | – | – |
| CC[C@H]1OC(=O)[C@H](C)[C@@H](O[C@H]2C[C@@](C)(OC)[C@@H](O)[C@H](C)O2)[C@H](C)[C@@H](O[C@@H]2O[C@H](C)C[C@H](N(C)C(C)C)[C@H]2O)[C@@]2(C)CC(C)=C(O2)[C@H](C)C(=O)[C@]1(C)OC.O=C(O)/C=C/C(=O)O [GM-611, 8,9-didehydro-N-demethyl-9-deoxo-6,11-dideoxy-6,9-epoxy-12-O-methyl-N-(1-methylethyl)-11-oxoerythromycin,(2E)-2-butenedioate] | – | – | no apparent dose dependency | 0.025 | greater than those in the placebo group; also recorded: only a tendency to improve the symptom | 0.001 | dose-dependent | significant | 0.010 | dose-dependent manner | significant efficacy in improving the symptom | 0.001 | dose-dependent manner | significant efficacy in improving the symptom |
